From patent US12258327B2, “5-membered heteroaryl-containing aminopyridine compounds as EGFR inhibitors” (YUHAN CORPORATION, priority 2021, dated 2025) come the findings set out here.

Read-outs that look alike come from different tables or passages of the source.

One assay addresses EGFR del19/T790M/C797S (Homo sapiens, UniProt P00533, C797S/DEL746-750/T790M). As to the kind of experiment: Biochemical EGFR kinase assay (Lance Ultra TR-FRET), triple mutant del19/T790M/C797S. In outline:
(§1)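 Kinase activity is measured by TR-FRET phosphopeptide detection. Compounds span 0.003 μM to 10 μM; the 1 h reaction at room temperature is quenched with EDTA, then labelled antibody (2 nM) is incubated 60 min before reading.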
On the technique in general: TR-FRET usually uses a lanthanide donor and a delayed reading to cut background.

The target of a further assay is EGFR L858R/T790M/C797S (Homo sapiens, UniProt P00533, C797S/L858R/T790M). Nature of the assay: Biochemical EGFR kinase assay (Lance Ultra TR-FRET), triple mutant L858R/T790M/C797S. The gist of the method: as §1
A further assay addresses EGFR del19/C797S (Homo sapiens, UniProt P00533, C797S/DEL746-750). Nature of the assay: Biochemical EGFR kinase assay (Lance Ultra TR-FRET), double mutant del19/C797S. In outline: as §1
The next assay has as its target EGFR L858R/C797S (Homo sapiens, UniProt P00533, C797S/L858R). Nature of the assay: Biochemical EGFR kinase assay (Lance Ultra TR-FRET), double mutant L858R/C797S. The gist of the method:
as §1

For a further assay, the target named is EGFR wildtype (WT) (Homo sapiens, UniProt P00533). As to the kind of experiment: Biochemical EGFR kinase assay (Lance Ultra TR-FRET), wildtype. The gist of the method:
as §1

[1] abbreviates: IC50 del19/T790M/C797S (nM) 100 μM ATP, 100 μM ATP.
[2] abbreviates: IC50 L858R/T790M/C797S (nM) 100 μM ATP, 100 μM ATP.
[3] abbreviates: Km ATP, read-out: IC50 L858R/T790M/C797S (nM) Km ATP.
Where [4] appears, read: IC50 del19/C797S (nM) 100 μM ATP, 100 μM ATP.
Setting [5] is: Km ATP, read-out: IC50 del19/C797S (nM) Km ATP.
The mark [6] stands for this setting: IC50 L858R/C797S (nM) 100 μM ATP, 100 μM ATP.
Setting [7] is: Km ATP, read-out: IC50 L858R/C797S (nM) Km ATP.
The mark [8] stands for this setting: IC50 WT (nM) 100 μM ATP, 100 μM ATP.
[9] abbreviates: Km ATP, read-out: IC50 WT (nM) Km ATP.
[10] abbreviates: Km ATP, read-out: IC50 del19/T790M/C797S (nM) Km ATP.

Sequence of EGFR wildtype (WT) (P00533 25-1210): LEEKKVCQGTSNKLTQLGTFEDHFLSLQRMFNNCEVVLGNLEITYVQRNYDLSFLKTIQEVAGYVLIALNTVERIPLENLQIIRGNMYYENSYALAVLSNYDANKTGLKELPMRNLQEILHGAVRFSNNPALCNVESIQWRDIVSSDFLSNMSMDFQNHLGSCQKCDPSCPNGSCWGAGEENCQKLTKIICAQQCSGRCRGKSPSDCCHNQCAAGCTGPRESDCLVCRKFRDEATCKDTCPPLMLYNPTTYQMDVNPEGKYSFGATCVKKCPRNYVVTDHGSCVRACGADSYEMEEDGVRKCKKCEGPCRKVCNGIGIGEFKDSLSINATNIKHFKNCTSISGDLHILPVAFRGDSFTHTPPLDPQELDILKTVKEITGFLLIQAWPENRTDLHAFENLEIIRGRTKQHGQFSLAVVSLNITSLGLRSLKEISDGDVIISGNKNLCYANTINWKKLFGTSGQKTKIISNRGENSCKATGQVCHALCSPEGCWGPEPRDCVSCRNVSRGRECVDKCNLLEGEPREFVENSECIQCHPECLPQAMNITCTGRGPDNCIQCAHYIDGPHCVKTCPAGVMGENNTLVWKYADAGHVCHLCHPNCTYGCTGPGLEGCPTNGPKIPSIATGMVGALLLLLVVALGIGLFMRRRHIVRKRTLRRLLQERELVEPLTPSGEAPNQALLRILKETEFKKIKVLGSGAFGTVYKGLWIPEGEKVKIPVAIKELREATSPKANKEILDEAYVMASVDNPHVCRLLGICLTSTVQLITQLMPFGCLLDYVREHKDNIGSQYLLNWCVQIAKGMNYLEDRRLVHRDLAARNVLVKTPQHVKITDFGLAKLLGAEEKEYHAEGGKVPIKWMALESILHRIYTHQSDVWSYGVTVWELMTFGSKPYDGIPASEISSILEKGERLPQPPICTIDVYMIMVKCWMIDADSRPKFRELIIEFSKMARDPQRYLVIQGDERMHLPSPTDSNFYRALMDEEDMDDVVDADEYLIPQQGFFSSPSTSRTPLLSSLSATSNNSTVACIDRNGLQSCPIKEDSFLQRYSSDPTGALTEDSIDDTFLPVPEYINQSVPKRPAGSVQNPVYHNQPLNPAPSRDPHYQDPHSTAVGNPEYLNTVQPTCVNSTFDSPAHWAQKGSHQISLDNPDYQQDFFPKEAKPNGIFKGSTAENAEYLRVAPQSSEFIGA
Sequence of EGFR L858R/T790M/C797S (P00533 25-1210 T790M/C797S/L858R): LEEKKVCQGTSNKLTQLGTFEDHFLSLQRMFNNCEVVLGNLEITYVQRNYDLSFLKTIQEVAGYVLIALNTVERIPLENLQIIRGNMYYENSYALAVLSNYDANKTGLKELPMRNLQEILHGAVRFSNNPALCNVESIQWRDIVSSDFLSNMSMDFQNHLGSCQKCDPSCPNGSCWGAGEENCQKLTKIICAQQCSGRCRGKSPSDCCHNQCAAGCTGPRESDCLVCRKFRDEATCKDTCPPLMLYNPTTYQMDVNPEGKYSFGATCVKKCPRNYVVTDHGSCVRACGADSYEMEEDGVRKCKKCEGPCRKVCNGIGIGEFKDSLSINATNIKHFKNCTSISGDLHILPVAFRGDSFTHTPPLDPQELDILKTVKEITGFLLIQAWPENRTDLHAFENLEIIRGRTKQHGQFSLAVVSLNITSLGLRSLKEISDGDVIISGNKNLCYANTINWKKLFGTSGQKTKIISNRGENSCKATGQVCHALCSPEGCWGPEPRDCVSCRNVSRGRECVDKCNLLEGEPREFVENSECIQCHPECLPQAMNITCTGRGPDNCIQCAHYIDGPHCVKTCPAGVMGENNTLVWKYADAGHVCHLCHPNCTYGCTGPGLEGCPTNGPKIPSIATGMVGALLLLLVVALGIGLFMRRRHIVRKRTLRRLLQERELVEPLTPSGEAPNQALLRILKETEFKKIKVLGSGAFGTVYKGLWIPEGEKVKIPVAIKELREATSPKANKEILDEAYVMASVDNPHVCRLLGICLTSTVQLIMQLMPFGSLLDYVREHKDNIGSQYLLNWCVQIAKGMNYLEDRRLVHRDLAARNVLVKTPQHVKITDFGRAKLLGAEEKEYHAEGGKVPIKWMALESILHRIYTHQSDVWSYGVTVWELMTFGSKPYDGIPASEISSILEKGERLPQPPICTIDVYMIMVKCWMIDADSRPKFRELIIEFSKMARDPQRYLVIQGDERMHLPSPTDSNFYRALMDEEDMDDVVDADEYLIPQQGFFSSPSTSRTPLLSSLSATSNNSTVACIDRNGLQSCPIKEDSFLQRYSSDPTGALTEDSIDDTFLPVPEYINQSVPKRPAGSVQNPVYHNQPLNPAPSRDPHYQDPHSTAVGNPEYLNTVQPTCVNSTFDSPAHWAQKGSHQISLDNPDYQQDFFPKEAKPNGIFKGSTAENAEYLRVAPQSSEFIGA
Sequence of EGFR del19/C797S (P00533 with tags, fused parts or gaps DEL746-750/C797S): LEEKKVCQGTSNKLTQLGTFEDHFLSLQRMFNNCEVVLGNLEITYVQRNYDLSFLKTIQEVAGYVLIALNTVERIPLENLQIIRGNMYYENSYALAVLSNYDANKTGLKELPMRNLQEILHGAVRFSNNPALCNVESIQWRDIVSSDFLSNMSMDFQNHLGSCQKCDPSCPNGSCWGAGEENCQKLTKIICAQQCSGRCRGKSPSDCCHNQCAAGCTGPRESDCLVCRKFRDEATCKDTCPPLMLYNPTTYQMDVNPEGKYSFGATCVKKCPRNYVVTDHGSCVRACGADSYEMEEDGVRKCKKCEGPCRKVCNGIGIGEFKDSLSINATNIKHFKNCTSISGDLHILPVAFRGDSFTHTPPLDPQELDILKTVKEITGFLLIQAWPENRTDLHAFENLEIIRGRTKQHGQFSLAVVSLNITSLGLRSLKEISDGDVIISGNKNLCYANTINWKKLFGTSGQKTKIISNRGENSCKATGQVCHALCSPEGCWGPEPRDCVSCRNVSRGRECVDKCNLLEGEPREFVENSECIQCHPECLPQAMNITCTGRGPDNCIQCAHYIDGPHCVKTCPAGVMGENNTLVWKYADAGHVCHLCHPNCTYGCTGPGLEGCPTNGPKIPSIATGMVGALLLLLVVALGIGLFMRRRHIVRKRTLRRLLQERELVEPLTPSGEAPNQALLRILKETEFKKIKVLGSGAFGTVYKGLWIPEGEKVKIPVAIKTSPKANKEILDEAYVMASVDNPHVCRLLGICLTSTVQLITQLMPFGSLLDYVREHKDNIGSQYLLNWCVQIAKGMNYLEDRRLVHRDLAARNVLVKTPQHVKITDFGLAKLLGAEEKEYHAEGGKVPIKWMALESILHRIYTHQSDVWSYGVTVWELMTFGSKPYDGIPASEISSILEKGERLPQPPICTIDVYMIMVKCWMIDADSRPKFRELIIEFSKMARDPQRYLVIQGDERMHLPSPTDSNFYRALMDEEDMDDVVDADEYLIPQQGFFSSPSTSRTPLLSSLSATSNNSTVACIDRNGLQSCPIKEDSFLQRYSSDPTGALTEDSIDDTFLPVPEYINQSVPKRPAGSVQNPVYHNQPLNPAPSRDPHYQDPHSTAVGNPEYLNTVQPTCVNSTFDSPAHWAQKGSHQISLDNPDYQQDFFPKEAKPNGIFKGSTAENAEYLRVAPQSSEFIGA
Sequence of EGFR del19/T790M/C797S (P00533 with tags, fused parts or gaps DEL746-750/T790M/C797S): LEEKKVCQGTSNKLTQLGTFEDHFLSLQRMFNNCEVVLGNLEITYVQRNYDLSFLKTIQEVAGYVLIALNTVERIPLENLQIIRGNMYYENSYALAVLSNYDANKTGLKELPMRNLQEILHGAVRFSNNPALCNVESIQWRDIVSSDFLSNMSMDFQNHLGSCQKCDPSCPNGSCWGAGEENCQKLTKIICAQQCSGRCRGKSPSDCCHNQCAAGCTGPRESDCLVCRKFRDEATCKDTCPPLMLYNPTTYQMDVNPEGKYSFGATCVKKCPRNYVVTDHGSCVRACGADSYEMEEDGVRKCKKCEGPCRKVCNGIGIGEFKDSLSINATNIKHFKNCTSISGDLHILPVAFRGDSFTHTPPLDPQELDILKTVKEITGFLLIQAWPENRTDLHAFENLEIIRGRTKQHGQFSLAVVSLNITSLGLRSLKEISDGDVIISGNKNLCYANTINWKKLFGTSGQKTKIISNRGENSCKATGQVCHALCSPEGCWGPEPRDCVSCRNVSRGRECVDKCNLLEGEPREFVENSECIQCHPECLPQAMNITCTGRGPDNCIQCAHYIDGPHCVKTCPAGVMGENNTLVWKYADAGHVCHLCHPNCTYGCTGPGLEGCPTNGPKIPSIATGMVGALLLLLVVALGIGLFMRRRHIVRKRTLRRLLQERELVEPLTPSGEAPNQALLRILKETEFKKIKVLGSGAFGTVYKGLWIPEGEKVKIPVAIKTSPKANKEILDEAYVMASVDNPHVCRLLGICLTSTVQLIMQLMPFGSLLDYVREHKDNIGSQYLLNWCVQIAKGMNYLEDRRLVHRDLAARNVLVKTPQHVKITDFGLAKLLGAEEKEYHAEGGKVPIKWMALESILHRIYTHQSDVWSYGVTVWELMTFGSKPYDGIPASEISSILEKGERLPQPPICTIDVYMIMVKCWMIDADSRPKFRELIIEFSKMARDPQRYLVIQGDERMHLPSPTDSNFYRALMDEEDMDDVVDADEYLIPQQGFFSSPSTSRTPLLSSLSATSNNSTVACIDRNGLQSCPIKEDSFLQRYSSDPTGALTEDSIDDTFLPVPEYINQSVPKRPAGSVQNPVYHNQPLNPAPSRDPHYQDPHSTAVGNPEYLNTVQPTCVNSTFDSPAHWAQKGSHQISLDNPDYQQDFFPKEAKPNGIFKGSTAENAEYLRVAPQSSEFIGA

Turning to `CC(C)(O)[C@H]1CC[C@@H](Nc2cc(Nc3ccnc(-c4cnn(S(=O)(=O)C5CC5)c4)n3)ncc2-c2ccn(CC(F)F)n2)CC1` [Example 243, 2-((1s,4s)-4-((2-((2-(1-(Cyclopropylsulfonyl)-1H-pyrazol-4-yl)pyrimidin-4-yl)amino)-5-(1-(2,2-difluoroethyl)-1H-pyrazol-3-yl)pyridin-4-yl)amino)cyclohexyl)propan-2-ol], the IC50 against EGFR del19/T790M/C797S (setting [1]) stood at 2.7 nM; at EGFR L858R/T790M/C797S (setting [2]), 1 nM; at EGFR L858R/T790M/C797S (setting [3]), 0.2 nM; against EGFR del19/C797S (setting [4]), 2 nM; at EGFR del19/C797S (setting [5]), 1.7 nM; on EGFR L858R/C797S (setting [6]) it was 10 nM. In addition, the IC50 came to 4.5 nM at EGFR L858R/C797S (setting [7]), 4010 nM at EGFR wildtype (WT) (setting [8]) and 8.4 nM at EGFR wildtype (WT) (setting [9]).

For `CN[C@H]1CC[C@@H](Nc2cc(Nc3ccnc(-c4cnn(S(=O)(=O)C5CC5)c4)n3)ncc2-c2ccn(C(C)C)n2)CC1` [Example 86, N^2-(2-(1-(Cyclopropylsulfonyl)-1H-pyrazol-4-yl)pyrimidin-4-yl)-5-(1-isopropyl-1H-pyrazol-3-yl)-N^4-((1s,4s)-4-(methylamino)cyclohexyl)pyridine-2,4-diamine], the IC50 on EGFR del19/T790M/C797S (read-out: IC50 del19/T790M/C797S (nM) 100 μM ATP, 100 μM ATP) was 0.2 nM; on EGFR L858R/T790M/C797S (read-out: IC50 L858R/T790M/C797S (nM) 100 μM ATP, 100 μM ATP), 0.3 nM; on EGFR del19/C797S (read-out: IC50 del19/C797S (nM) 100 μM ATP, 100 μM ATP), 3.2 nM; at EGFR L858R/C797S (read-out: IC50 L858R/C797S (nM) 100 μM ATP, 100 μM ATP) it was 14.8 nM; on EGFR wildtype (WT) (read-out: IC50 WT (nM) 100 μM ATP, 100 μM ATP) it was 8510 nM.

With `C[C@]1(O)CC[C@@H](Nc2cc(Nc3ccnc(-c4cnn(C(F)F)c4)n3)ncc2-c2ccn(C(F)F)n2)CC1` [Example 149, (1s,4s)-4-((5-(1-(Difluoromethyl)-1H-pyrazol-3-yl)-2-((2-(1-(difluoromethyl)-1H-pyrazol-4-yl)pyrimidin-4-yl)amino)pyridin-4-yl)amino)-1-methylcyclohexan-1-ol], the IC50 at EGFR del19/T790M/C797S (setting [10]) worked out at 2.7 nM; at EGFR L858R/T790M/C797S (setting [3]), 2.7 nM; on EGFR del19/C797S (setting [5]), 144 nM; on EGFR L858R/C797S (setting [7]), 47.2 nM; at EGFR wildtype (WT) (setting [9]) it was 1730 nM.

As to `O=S(=O)(C1CC1)n1cc(-c2nccc(Nc3cc(NC4CCCC(F)C4)c(-c4ccn(C(F)F)n4)cn3)n2)cn1` (stereo not shown) [Example 181, N^2-(2-(1-(Cyclopropylsulfonyl)-1H-pyrazol-4-yl)pyrimidin-4-yl)-5-(1-(difluoromethyl)-1H-pyrazol-3-yl)-N^4-(3-fluorocyclohexyl)pyridine-2,4-diamine], the IC50 on EGFR del19/T790M/C797S (setting [10]) worked out at 2.1 nM; at EGFR L858R/T790M/C797S (setting [3]) it was 2.1 nM; at EGFR del19/C797S (setting [5]), 6.7 nM; on EGFR L858R/C797S (setting [7]) it was 13.2 nM; at EGFR wildtype (WT) (setting [9]), 44.6 nM.

With `O=S(=O)(C1CC1)n1cc(-c2cc(Nc3ncc(-c4ccn(CC(F)(F)F)n4)c(N[C@H]4CC[C@@H](F)CC4)n3)ccn2)cn1` [Example 366, N^2-(2-(1-(Cyclopropylsulfonyl)-1H-pyrazol-4-yl)pyridin-4-yl)-N^4-((1s,4s)-4-fluorocyclohexyl)-5-(1-(2,2,2-trifluoroethyl)-1H-pyrazol-3-yl)pyrimidine-2,4-diamine], the IC50 on EGFR del19/T790M/C797S (Km ATP, read-out: IC50 del19/T790M/C797S, Km ATP) was 8.5 nM; at EGFR L858R/T790M/C797S (Km ATP, read-out: IC50 L858R/T790M/C797S, Km ATP) it was 3.1 nM; at EGFR del19/C797S (Km ATP, read-out: IC50 del19/C797S, Km ATP), 249 nM; at EGFR L858R/C797S (Km ATP, read-out: IC50 L858R/C797S, Km ATP), 127 nM; at EGFR wildtype (WT) (Km ATP, read-out: IC50 WT, Km ATP) it was 3320 nM.

As for `Cn1ccc(-c2cnc(Nc3ccnc(-c4cnn(S(=O)(=O)C5CC5)c4)n3)cc2N[C@H]2CC[C@@H](O)CC2)n1` [Example 79, (1s,4s)-4-((2-((2-(1-(Cyclopropylsulfonyl)-1H-pyrazol-4-yl)pyrimidin-4-yl)amino)-5-(1-methyl-1H-pyrazol-3-yl)pyridin-4-yl)amino)cyclohexan-1-ol], the IC50 was determined as 0.5 nM at EGFR del19/T790M/C797S (setting [1]); 0.5 nM against EGFR L858R/T790M/C797S (setting [2]); 0.7 nM against EGFR del19/C797S (setting [4]); 0.8 nM at EGFR L858R/C797S (setting [6]); 58.1 nM against EGFR wildtype (WT) (setting [8]).
